According to patent US20260034192A1 (University of Saskatchewan, priority 2022, published 2026):
Several values for one entry are separate records, joined by “and”; a condition that tells them apart may be missing. Equal entries are not always repeated. Square brackets hold non-standard residues; d marks the D form. Peptide text beside a SMILES is read from it. * marks the point of attachment. dPhe(4-NHCONH2) = NC(=O)Nc1ccc(C[C@@H](N)C(=O)O)cc1; Dihydroorotyl(S) = O=C1C[C@@H](C(=O)*)NC(=O)N1; dPhe(4-NH2) = Nc1ccc(C[C@@H](N)C(=O)O)cc1; dPhe(4-Cl) = N[C@H](Cc1ccc(Cl)cc1)C(=O)O; Phe(4-NH2) = Nc1ccc(C[C@H](N)C(=O)O)cc1; d2Nal = N[C@H](Cc1ccc2ccccc2c1)C(=O)O; Lys(iPr) = CC(C)NCCCC[C@H](N)C(=O)O; NMeY = CN[C@@H](Cc1ccc(O)cc1)C(=O)O; d3Pal = N[C@H](Cc1cccnc1)C(=O)O

How the values were obtained:
[1] = system: GnRH-induced plasma LH levels and ovulation; experiment: GnRH challenge in heifers pre-treated with GnRH antagonists: plasma LH and ovulation (Example 10); type: in vivo, cattle; settings: for Plasma LH response to GnRH challenge: heifers pre-treated with antagonist 60 minutes before GnRH injection; for Ovulation (Yes/No) within 48 hr of GnRH treatment / Plasma LH concentration at 60 minute, group Mean / Plasma LH concentration at 120 minute, group Mean / Plasma LH concentration at −60 minute, group Mean / Plasma LH concentration at 0 minute, group Mean: heifers; for Ovulation (Yes/No) within 48 hr of GnRH treatment / Dominant follicle diameter (mm) 48 hr after GnRH Injection / Dominant follicle diameter (mm) at GnRH injection: 3 mg antagonist 60 min before GnRH; for Plasma LH concentration at 60 minute, group Mean / Plasma LH concentration at 120 minute, group Mean / Plasma LH concentration at 60 minute / Plasma LH concentration at 120 minute: after GnRH injection; for Plasma LH concentration at −60 minute, group Mean / Plasma LH concentration at −60 minute: time of 3 mg GnRH antagonist injection; for Plasma LH concentration at 0 minute, group Mean / Plasma LH concentration at 0 minute: time of GnRH injection; for Dominant follicle diameter (mm) 48 hr after GnRH Injection / Dominant follicle diameter (mm) at GnRH injection / Plasma LH concentration at 60 minute / Plasma LH concentration at 120 minute / Plasma LH concentration at −60 minute / Plasma LH concentration at 0 minute: individual heifers; for Plasma LH concentration at 60 minute / Plasma LH concentration at 120 minute / Plasma LH concentration at 0 minute: 3 mg antagonist at −60 min; for Plasma LH concentration at −60 minute: 60 mins before GnRH
Procedure: Methods: Pubertal heifers (n=10) with a functional CL were selected at the Federal University of Santa Maria. Heifers were administered an intramuscular (i/m) injection of prostaglandin F2a analog (PGF; Lutalyse 5 ml or Estrumate 2 ml) to induce CL regression. Heifers were randomly placed into 4 treatment groups at the time of PGF injection: Trt1 (n=2, 3 mg of Abarelix); Trt2 (n=2, 3 mg of Degarelix), Trt3 (n=2, 3 mg of Relugolix) and Trt 4 (n=4; Cetrorelix 3 mg). Heifers were treated with these GnRH antagonists 1.5 days (36 hr) after the PGF injection and the GnRH antagonist treatment time point was defined as −60 mins. Heifers were treated with GnRH ([…] of Fertagyl i/m) at 0 mins to induce ovulation. Jugular venipuncture plasma samples were collected every 60 minutes for 3 hours (from −60 min to 120 minutes, with t=0 min when GnRH is administered). Plasma samples were kept at 4C overnight and LH analysis was performed the next day using a bovine-specific ELISA commercial kit. Transrectal ultrasonography was conducted to the time of GnRH injection (Time 0 hr) and 2 days later (48 hr after GnRH injection) to record the size of dominant follicle and to detect ovulation after treatment.

bovine pituitary cells = experiment: GnRH-induced LH secretion of bovine pituitary cells in vitro (Example 9); type: cell-based; settings: for LH conc in medium: 300 μg cetrorelix, 340 μg Degarelix, 300 ug Abarelix, 130 μg Relugolix
Procedure: Methods: The heads of mature, non-pregnant cows (n=4) were collected from a local abattoir and the pituitary glands were dissected within 60 minutes of slaughter. Immediately following the dissection, the pituitaries were submerged into ice-cold collection medium. The pituitaries were washed 3 times in collection media and the neurohypophysis was dissected from the adenohypophysis. Using a scalpel, the adenohypophysis (anterior pituitary) was sliced into 1 mm×1 mm pieces and transferred to a 50 mL falcon tube containing DMEM medium with 0.5% BSA. The tissue pieces were washed by manually agitating the tube for 1 minute. The tissue pieces were allowed to settle to the bottom of the tube, then the supernatant was discarded. The macerated pieces were transferred to a 15 mL falcon tube with the dissociation medium and incubated at 37° C. for 60 minutes. Every 10 minutes the tube was vortexed for 1 minute to ensure the tissue was completely dissociated. The dissociation media was inactivated using DMEM with 10% SFB then manually agitating the tube for 1 minute. The dissociated cells were placed in a 40 μm cell strainer to remove the undigested tissue and placed into two 15 mL falcon tubes. The cells were centrifuged at 200×g for 10 minutes and the supernatant was discarded. The cells were washed three times by resuspending in DMEM solution with red blood cell lysing buffer followed by centrifuged at 200×g for 10 minutes. Then the cells were washed with DMEM solution and centrifuged at 200×g for 10 minutes. Following the last centrifugation, the cells were resuspended in DMEM, and the trypan blue test was used to determine the cell count and assess viability. DMEM with 10% fetal bovine serum (FBS) was treated with 10% charcoal-dextran and passed through a 0.2 μm filter. The cells were then plated in a 24-well tissue culture plate with a concentration of 1×10^6 viable cells per well and incubated at 37° C. for 24 hours. The following day, to starve the cells, the culture media was replaced with DMEM without FBS and left to incubate for another 24 hours.
Treatments: Based on the results from the pilot study, the selected concentration for Cetrorelix (cetrorelix acetate) was 300 μg. The cetrorelix was dissolved in trace levels of DMSO then dissolved in ultrapure water. To standardize the treatments, the nanomole concentration of each GnRH antagonist were matched with the cetrorelix nanomole concentration. The final concentration used for further experiments were: 300 μg for cetrorelix, 340 μg for Degarelix (Degarelix acetate), 300 ug for Abarelix (Abarelix acetate). Both degarelix and abarelix were dissolved ultrapure water. The equivalent Relugolix nanomole concentration was 130 μg which was dissolved in methanol. Treatment cells were preincubated for 60 minutes with either Cetrorelix, Degarelix, Relugolix or Abarelix. Following the preincubation, the cells were incubated for 30 minutes with either 1 nM or 10 nM of GnRH (Gonadorelin, Fertagyl, Merck Animal Health). GnRH doses were based on pituitary study by Paolicchi et al. 1999). The media were collected and centrifuged at 200×g for 10 minutes to remove the cells. Positive (Control) group was only treated with 1 nM and 10 nM of GnRH to determine the maximum LH secretion. LH concentrations in the culture medium was measured by a commercial bovine specific ELISA kit and reported as mIU/ml of medium.

dominant follicle = settings: acyline-treated animals, multiple injections from just before ovulation; cited from earlier work
[2] = biological target: GnRH receptor on bovine pituitary gonadotrophs (bovine) (UniProt P32236); experiment: cell-based or functional assay
UniProt P32236, sequence (P32236 whole entry): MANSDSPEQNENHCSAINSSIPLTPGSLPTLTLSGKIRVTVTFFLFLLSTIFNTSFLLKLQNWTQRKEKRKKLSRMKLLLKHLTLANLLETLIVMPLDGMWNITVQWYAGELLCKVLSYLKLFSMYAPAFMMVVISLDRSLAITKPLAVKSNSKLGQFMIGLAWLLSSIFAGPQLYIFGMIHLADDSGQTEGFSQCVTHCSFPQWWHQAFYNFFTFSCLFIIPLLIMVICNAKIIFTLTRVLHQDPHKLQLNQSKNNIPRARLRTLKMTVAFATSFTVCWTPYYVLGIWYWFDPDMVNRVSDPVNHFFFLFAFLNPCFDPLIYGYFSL

[3] = challenged with 1 nM GnRH 30 minutes after 60 minutes preincubation
[4] = challenged with 10 nM GnRH 30 minutes after 60 minutes preincubation

Compound | Plasma LH response to GnRH challenge [1] | Ovulation (Yes/No) within 48 hr of GnRH treatment [1] | Plasma LH concentration at 60 minute, group Mean [1] [mIU/ml] | Plasma LH concentration at 120 minute, group Mean [1] [mIU/ml] | Plasma LH concentration at −60 minute, group Mean [1] [mIU/ml] | Plasma LH concentration at 0 minute, group Mean [1] [mIU/ml] | Dominant follicle diameter (mm) 48 hr after GnRH Injection [1] | Dominant follicle diameter (mm) at GnRH injection [1] | Plasma LH concentration at 60 minute [1] | Plasma LH concentration at 120 minute [1] | Plasma LH concentration at −60 minute [1] | Plasma LH concentration at 0 minute [1] | LH conc in medium (bovine pituitary cells; [3]) [mIU/mL] | LH conc in medium (bovine pituitary cells; [4]) [mIU/mL] | LH conc (mIU/mL) in medium from bovine pituitary cells in vitro, preincubated 60 min with the antagonist, then challenged 30 min with 1 nM GnRH (control without antagonist: 2.01) [2] [mIU/mL] | LH conc (mIU/mL) in medium from bovine pituitary cells in vitro, preincubated 60 min with the antagonist, then challenged 30 min with 10 nM GnRH (control without antagonist: 2.49) [2] [mIU/mL] | further results
CC(=O)N[C@H](Cc1ccc2ccccc2c1)C(=O)N[C@H](Cc1ccc(Cl)cc1)C(=O)N[C@H](Cc1cccnc1)C(=O)N[C@@H](CO)C(=O)N(C)[C@@H](Cc1ccc(O)cc1)C(=O)N[C@H](CC(N)=O)C(=O)N[C@@H](CC(C)C)C(=O)N[C@@H](CCCCNC(C)C)C(=O)N1CCC[C@H]1C(=O)N[C@H](C)C(N)=O [Abarelix, N-acetyl-3-(2-naphthyl)-D-alanyl-4-chloro-D-phenylalanyl-3-(3-pyridyl)-D-alanyl-L-seryl-N-methyl-L-tyrosyl-D-asparagyl-L-leucyl-N6-isopropyl-L-lysyl-L-prolyl-D-alaninamide] (Ac-[d2Nal][dPhe(4-Cl)][d3Pal]S[NMeY][dN]L[Lys(iPr)]P[dA]-NH2) | did not register an increase in LH | No | 10.49 | 11.23 | 9.43 | 11.26 | 14 mm and 12 mm | 14.4 mm and 13.6 mm | 8.96 mIU/ml and 12.02 mIU/ml | 9.32 mIU/ml and 13.14 mIU/ml | 8.65 mIU/ml and 10.21 mIU/ml | 8.98 mIU/ml and 13.54 mIU/ml | 2.21 | 2.15 | – | – | Plasma LH response to GnRH challenge ([1]; listed as abarelix): block the GnRH-induced LH release; Ovulation (Yes/No) within 48 hr of GnRH treatment ([1]; listed as abarelix): prevent GnRH-induced ovulations; Effect on LH suppression (bovine pituitary cells; 1 nM GnRH challenge): no effect; Effect on LH concentration (bovine pituitary cells; 10 nM challenge): modest decrease
CC(=O)N[C@H](Cc1ccc2ccccc2c1)C(=O)N[C@H](Cc1ccc(Cl)cc1)C(=O)N[C@H](Cc1cccnc1)C(=O)N[C@@H](CO)C(=O)N[C@@H](Cc1ccc(NC(=O)[C@@H]2CC(=O)NC(=O)N2)cc1)C(=O)N[C@H](Cc1ccc(NC(N)=O)cc1)C(=O)N[C@@H](CC(C)C)C(=O)N[C@@H](CCCCNC(C)C)C(=O)N1CCC[C@H]1C(=O)N[C@H](C)C(N)=O [Degarelix, N-acetyl-3-(2-naphthyl)-D-alanyl-4-chloro-D-phenylalanyl-3-(3-pyridyl)-D-alanyl-L-seryl-4-((S)-dihydroorotamido)-L-phenylalanyl-4-ureido-D-phenylalanyl-L-leucyl-N6-isopropyl-L-lysyl-L-prolyl-D-alaninamide] (Ac-[d2Nal][dPhe(4-Cl)][d3Pal]S[Phe(4-NH2)](Dihydroorotyl(S))[dPhe(4-NHCONH2)]L[Lys(iPr)]P[dA]-NH2) | did not register an increase in LH | No | 8.60 | 8.62 | 8.14 | 8.89 | 12 mm and 13.2 mm | 14 mm and 15.1 mm | 4.87 mIU/ml and 12.32 mIU/ml | 5.25 mIU/ml and 11.98 mIU/ml | 5.54 mIU/ml and 10.74 mIU/ml | 5.37 mIU/ml and 12.41 mIU/ml | 1.33 | 1.21 | – | – | Plasma LH response to GnRH challenge ([1]; listed as degarelix): block the GnRH-induced LH release; Ovulation (Yes/No) within 48 hr of GnRH treatment ([1]; listed as degarelix): prevent GnRH-induced ovulations
CONC(=O)Nc1ccc(-c2sc3c(c2CN(C)C)c(=O)n(-c2ccc(OC)nn2)c(=O)n3Cc2c(F)cccc2F)cc1 [Relugolix, 1-[4-[1-[(2,6-difluorophenyl)methyl]-5-[(dimethylamino)methyl]-3-(6-methoxypyridazin-3-yl)-2,4-dioxothieno[2,3-d]pyrimidin-6-yl]phenyl]-3-methoxyurea] | did not register an increase in LH | No | 13.94 | 6.97 | 18.48 | 19.92 | 10 mm | 9.8 mm and 12.1 mm | 22.66 mIU/ml and 5.22 mIU/ml | 9.71 mIU/ml and 4.23 mIU/ml | 30.96 mIU/ml and 5.99 mIU/ml | 33.09 mIU/ml and 6.75 mIU/ml | 1.72 | 1.47 | – | – | Plasma LH response to GnRH challenge ([1]; listed as relugolix): block the GnRH-induced LH release; Ovulation (Yes/No) within 48 hr of GnRH treatment ([1]; listed as relugolix): prevent GnRH-induced ovulations
CC(=O)Nc1ccc(C[C@H](NC(=O)[C@H](CO)NC(=O)[C@@H](Cc2cccnc2)NC(=O)[C@@H](Cc2ccc(Cl)cc2)NC(=O)[C@@H](Cc2ccc3ccccc3c2)NC(C)=O)C(=O)N[C@H](Cc2ccc(NC(C)=O)cc2)C(=O)N[C@@H](CC(C)C)C(=O)N[C@@H](CCCCNC(C)C)C(=O)N2CCC[C@H]2C(=O)N[C@H](C)C(N)=O)cc1 [acyline, N-acetyl-3-(2-naphthyl)-D-alanyl-4-chloro-D-phenylalanyl-3-(3-pyridyl)-D-alanyl-L-seryl-4-acetamido-L-phenylalanyl-4-acetamido-D-phenylalanyl-L-leucyl-N6-isopropyl-L-lysyl-L-prolyl-D-alaninamide] (Ac-[d2Nal][dPhe(4-Cl)][d3Pal]S[Phe(4-NH2)](Ac)[dPhe(4-NH2)](Ac)L[Lys(iPr)]P[dA]-NH2) | – | – | – | – | – | – | – | – | – | – | – | – | – | – | – | – | Maximum diameter of dominant follicle (dominant follicle): 7.7 mm
Abarelix (Abarelix acetate) (peptide) | – | – | – | – | – | – | – | – | – | – | – | – | – | – | 2.21 | 2.15 | –
Degarelix (Degarelix acetate) (peptide) | – | – | – | – | – | – | – | – | – | – | – | – | – | – | 1.33 | 1.21 | –
